# Experimental data published in US6770303B1, “Use of antifungal and/or antibacterial and/or antiviral compounds” (priority 1998, dated 2004).
# Entries after “also recorded” stand apart in the source; their conditions may differ. Like-named read-outs stand apart in the source and are kept apart here.
# Tests used:
# [1] = tested on: phenylalanine ammonia lyase (PAL); assay: PAL activity in tobacco cell cultures after potentiator pretreatment and elicitation; assay type: cell-based, Nicotiana tabacum
# Protocol: Measurement of the activity of PAL (phenylalanine ammonia lyase): key enzyme in the phenylpropanoid pathway and more particularly in the lignification involved in defense reactions in plants (most particularly in monocotyledon plants).
# (§1) The cell suspensions used are suspensions of Nicotiana tabacum BY (bright yellow) obtained from Washington State University (Pullman, USA). They are cultured in the dark, at 24° C. with agitation (120 rpm) and subcultured every 7 days by transferring 10 ml of culture into 70 ml of fresh medium.
# (§2) The cells are pretreated 5 days after subculturing (end of the exponential growth phase) and elicited on the 6th day. Two hours before pretreatment, 10 ml of cells are transferred into 25 ml conical flasks. For the phenylalanine ammonia lyase (PAL) and lipoxygenase (LOX) activity analyses and the determination of the salicylic acid (SA), the cells are harvested at the desired time by filtration on Whatman 3 M paper, frozen in liquid nitrogen and stored at −80° C. until the analysis.
# The cells (0.5 g) are ground in 0.1 M pH 8.8 borate buffer in the presence of active charcoal and quartz. The grinding ratio is 1/5 (w/v). After centrifugation, 100 μl of cell extract are incubated for 1 h at 37° C. in the presence of 200 μl of 0.1 M pH 8.8 borate buffer and 100 μl of a mixture of 0.1 M pH 8.8 borate buffer and 300 μM L-phenylalanine (labelled and cold mixture); the final solution has a specific activity of 810,000 cpm/ml.
# The reaction is quenched by adding a few drops of 9 N H2SO4. 2 ml of H2O are added. The reaction products are extracted by adding 2 ml of an ether/cyclohexane mixture (1/1, v/v). Since the phenylalanine is insoluble in this mixture, the reaction is counted on 1 ml in the presence of “multi-purpose” scintillation liquid.
# (§3) In all cases, the pretreatment with the potentiator is carried out 18 hours before the elicitor treatment.
# The samples for analysing the physiological effects are taken 4 hours, 12 hours or 24 hours after elicitation. The controls corresponding to a potentiation alone or an elicitation alone are systematically present for each sample taken.
# lipoxygenase (LOX) = assay: LOX activity in tobacco cell cultures after potentiator pretreatment and elicitation; assay type: cell-based, Nicotiana tabacum; conditions: for LOX activity relative to the corresponding control: 18 h pretreatment; for LOX activity, potentiator applied alone / Effect on LOX activity, potentiator in itself: no elicitor; for Effect on LOX activity, potentiator in itself: conclusion of Example 1
# Protocol: Measurement of the activity of LOX (lipoxygenase) which is a key enzyme in the synthesis of jasmonic acid, another signal molecule.
# as §1, §2
# The cells (250 mg) are ground in 0.5 ml of extraction buffer in the presence of quartz.
# The ground mixture is centrifuged for 15 min at 4° C. and 13,000 rpm. 2.87 ml of 0.1 M pH 6.8 Tris buffer are added to the cell extract, followed by 30 μl of 10 mM linolenic acid. After stirring, the change in the OD is monitored at 234 nm.
# as §3
# […] The controls corresponding to a potentiation alone or an elicitation alone are systematically present for each sample taken.
# salicylic acid (SA) = assay: Salicylic acid (SA) accumulation in tobacco cell cultures; assay type: cell-based, Nicotiana tabacum
# Protocol: The samples (0.5 g) of tobacco cells or leaves are ground in liquid nitrogen and grinding is then continued in the presence of 0.8 ml of 90% methanol. A known amount of ^14C-labelled SA (1 nCi, 54 mCi/mol, Sigma) is then added in order to estimate the yield for the recovery of the endogenous SA. The amount of labelled SA added is less than the detection threshold for the analysis. […]
# The samples are brought to pH 2 by addition of 2 M HCl and are then heated at 80° C. for one hour. […] 20 ml of this mixture, to which are added 3 ml of scintillation liquid (Ready Gel, Beckmann), are taken for counting of the residual radioactivity, which allows calculation of the SA recovery yield. The contents of total SA determined correspond to the sum of the SA contents in free form and of the SA contents in conjugated form, the SA being released during the hydrolysis.
# The elution is programmed on a Waters HPLC system in an isocratic system for 10 min. […] The SA is quantified by fluorometry (λ excitation=315 nm, λ emission=405 nm). […] The amounts of SA injected are calculated by means of comparing the area of the peaks corresponding to SA with that of the standard molecule injected. The SA contents in the samples are then calculated, taking the recovery yield into account. […]
# Erysiphe cichoracerum = assay: Open-field trial on powdery mildew of melon by foliar treatment; assay type: in vivo; conditions: Agrimer 540 1 l/ha
# Protocol: Open-field Trial on Powdery Mildew (Erysiphe cichoracerum) of Melon (Cucumis melo, Rochet Variety) by Foliar Treatment.
# (§4) The fungicide used is fosetyl-Al (WG applied at 1.25 kg/ha, i.e. 1000 g/ha of active material) and the algal extract (solution LC, 1 l/ha) is Agrimer 540 from the company Agrimer.
# All of these products are used at a dose of 1000 g/ha and the percentage of plants attacked by the disease is determined 15 days after two treatments T1 and T2 (carried out with an interval of 7 days).
# Erysiphe graminis = assay: Open-field test on powdery mildew of wheat by foliar treatment; assay type: in vivo; conditions: winter wheat, fosetyl-Al 1000 g/ha a.m., Agrimer 540 1 l/ha
# Protocol: Open-field Test on Powdery Mildew (Erysiphe graminis) of Wheat (Triticum aestivum, Winter Variety) by Foliar Treatment.
# as §4
# All these products are used at a rate of 1000 g/ha and the percentage of plants attacked (% of leaves destroyed) by the disease is determined, on the one hand on a foliar stage treated semi-curatively (reading taken 22 days after the treatment T), and on the other hand on a foliar stage treated curatively (reading taken 27 days after the treatment T).
# tobacco cell cultures = assay type: cell-based, Nicotiana tabacum
# Description: Fosetyl-Al and phosphorous acid have mainly been selected as potentiators in the biological experimentation, but, for reasons of toxicity of fosetyl-Al on tobacco cell cultures, we replaced it with fosetyl sodium in the cell tests.
# [2] = cells potentiated and elicited with a pectin oligomer, compared with the other conditions
structure (smiles),measurement,setting,value
"OP(O)O [H3PO3, phosphorous acid]",Effect of conditioning on PAL activity after elicitation,[1],strong stimulation of the PAL activity; also recorded: greater than that observed in the unconditioned cells
same,Effect of pretreatment on induction of PAL activity by the elicitor,[1],markedly amplifies the response to the elicitor
same,"Induction of PAL activity, potentiator applied alone",[1],No significant inductive effect; also recorded: do not in themselves have any effect
same,PAL activity of potentiated and elicited cells (FIG. 21),[1],much higher
same,PAL activity of pretreated cells versus unconditioned cells,[1],always greater than that observed in the unconditioned cells
same,PAL activity relative to the level of the unconditioned cells,[1],4 times
same,LOX activity relative to the corresponding control,lipoxygenase (LOX); measured 12 h after elicitation with 2 nM β-megaspermine,about 28 times
same,LOX activity relative to the corresponding control,lipoxygenase (LOX); measured 21 h after elicitation with 10 μg/ml oligosaccharide elicitor of β-glucan type,about 4 times
same,"LOX activity, potentiator applied alone",lipoxygenase (LOX); 30 h (18 h of pretreatment+12 h) after application,No inductive effect
same,"LOX activity, potentiator applied alone",lipoxygenase (LOX); 39 h (18 h of pretreatment+21 h) after application,mild inductive effect
same,"Effect on LOX activity, potentiator in itself",lipoxygenase (LOX),do not in themselves have any effect
same,"Effect on synthesis of SA, potentiator in itself",salicylic acid (SA),do not in themselves have any effect
same,Rate of synthesis of SA relative to unconditioned cells,salicylic acid (SA),large increase
CCO[PH](=O)O [fosetyl-Na],PAL activity of pretreated cells versus unconditioned cells,"[1]; 5 mM conditioning 18 h, then 2 nM β-megaspermine (FIG. 9)",always greater than that observed in the unconditioned cells
same,Effect of conditioning on PAL activity after elicitation,"[1]; 5 mM conditioning 18 h, then 20 μg/ml pectin oligomers",maintains the PAL activity at a high level 11 h after the elicitation
same,PAL activity of potentiated and elicited cells (FIG. 21),[1]; [2],much higher
same,"Induction of PAL activity, potentiator applied alone",[1]; no elicitor,No significant effect; also recorded: do not in themselves have any effect
same,"Effect on LOX activity, potentiator in itself",lipoxygenase (LOX),do not in themselves have any effect
same,"Effect on synthesis of SA, potentiator in itself","salicylic acid (SA); no elicitor, conclusion of Example 1",do not in themselves have any effect
"CSC(=O)c1cccc2nnsc12 [BTH, reference compound]",PAL activity of potentiated and elicited cells (FIG. 21),[1]; [2],much higher
"CCO[PH](=O)O [Fosetyl-Al, fosetyl-Al]","percentage of plants attacked by the disease, % at T2 + 15 days","Erysiphe cichoracerum; T2 7 days after T1, fosetyl-Al 1000 g/ha a.m., untreated control 95.0",80.0%
same,"percentage of plants attacked by the disease, % at T1 + 15 days","Erysiphe cichoracerum; fosetyl-Al 1000 g/ha a.m., untreated control 91.7",80.0%
same,"% of leaves destroyed at T + 22, semi-curative",Erysiphe graminis; untreated control 91.1,77.8%
same,"% of leaves destroyed at T + 27, curative",Erysiphe graminis; untreated control 100,100%
same,Toxicity on tobacco cell cultures,tobacco cell cultures,toxicity
